Laboratory results: patent publication US11912645B2, “Lipopeptide compounds for the treatment of pain disorders” (INSERM (Institut National de la Santé et de la Recherche …, priority 2017, dated 2024)

Assays:
Caco-2 cells [1] = test: Absorption across Caco-2 monolayer in transwell chambers; format: in vitro ADME, human; conditions: 800 ng apical
Protocol: (§1) FIG. 5: C12-Asn-GABA crosses the epithelial barrier without modifying epithelial cells physiology. Caco-2 cells were cultivated into transwell chambers. After treatment with C12-Asn-GABA (800 ng) at the apical side, C12-Asn-GABA was quantified inside the cells and both the apical and basolateral compartments by LC-MS/MS (A); data are represented as mean±SEM, n=3 experiments of 3 wells per condition. Extracted ion chromatogram at the exact mass of GABA (104.0702 m/z) with a mass accuracy of 5 ppm of the GABA commercial standard (GABA (Std.) and apical and basolateral compartments after loading or not Caco-2 cells with 800 ng of GABA at the apical site (B); representation of one well, n=3 experiments of 3 wells per condition. Paracellular permeability assessed by the passage of FITC-dextran loaded at the apical side (C) and CXCL8 secretion assessed by ELISA (D) were monitored after treatment of Caco-2 cells at the apical side with C12-Asn-GABA (10 μM); data are represented as mean±SEM, n=3 experiments of 3 wells per condition. […]
Caco-2 cells were grown in Glutamax DMEM (Gibco, Invitrogen life technologies, Paisley, UK) supplemented with 10% heat-inactivated fetal bovine serum (FBS) (Gibco, Invitrogen life technologies, Paisley, UK), 1% nonessential amino acids and 1% antibiotics (100 U/ml penicillin and […] streptomycin (Gibco, Invitrogen life technologies, Grand Island, N.Y., USA) at 37° C. in a 5% C02 water-saturated atmosphere. Cells were seeded on Transwell inserts (Costar, Sigma-Aldrich, Saint-Quentin Fallavier, France) and absorption studies of C12-Asn-GABA and GABA were performed 16 days later. These compounds were quantified by LC-MS/MS in both apical and basolateral chambers as well as in cells. The effect of C12-Asn-GABA (1-100 μM) on paracellular permeability was also measured by mucosal-to-serosal flux of 4 kDa Fluorescein Isothiocyanate (FITC)-labelled dextran as previously described^31. […]
The initial barrier for any drug absorption is the intestinal epithelial cell wall. […] The transport of GABA alone across the cell monolayer was also assessed. […]

Caco-2 cells [2] = test: CXCL8 secretion by Caco-2 cells (ELISA); format: cell-based, human; conditions: 1, 10, 100 μM; 24 hours
Protocol: as §1
To assess the effect of C12-Asn-GABA on paracellular permeability, transport of dextran 4 kDa FITC across a Caco-2 cell monolayer was investigated. […] In parallel, the release of CXCL8 from Caco-2 cells into the medium, of both apical and basolateral sides of the transwell, was assessed by ELISA. […]

Compound: CCCCCCCCCCCC(=O)NC(CC(N)=O)C(=O)NCCCC(=O)O (stereo not drawn) [C12-Asn-GABA, C11 C(O)-Asn-gamma-aminobutyric acid]
- fraction of apically added compound found in the basolateral chamber (Caco-2 cells [1]; 24 h, LC-MS/MS): approximately 50%
- level in epithelial cells (Caco-2 cells [1]; 24 h of incubation): low levels
- secretion of CXCL8 (apical and basolateral) (Caco-2 cells [2]): None of the tested doses (1, 10, 100 μM) and neither the vehicle modified the secretion of CXCL8
